Tested on: Human immunodeficiency virus 1
Assay: Inhibition of recombinant HIV1 protease at 100 ug/ml

Compound	inhibition [%]
H-LLEYVW-OH	64.9
H-LLEYVY-OH	58.6
H-LLEYVM-OH	47.2
H-LLEYVF-OH	52.3
CC(=O)N[C@H](C(=O)N[C@H](C(=O)N[C@@H](CC(C)C)[C@@H](O)CC(=O)N[C@@H](C)C(=O)N[C@@H](CC(C)C)[C@@H](O)CC(=O)O)C(C)C)C(C)C	98.5

— ChEMBL document CHEMBL1143941, “Design, synthesis and structure-activity study of shorter hexa peptide analogues as HIV-1 protease inhibitors” (Bioorg Med Chem, 2008)
